The values below come from ChEMBL document CHEMBL3638676, “Triazolopyridine compounds” (2015).

The target in this assay is Phosphodiesterase 3 (Homo sapiens, UniProt Q14432+Q13370). Briefly: Scintillation Proximity Assay (SPA): The kinase assay is based on the LanthaScreen technology. It is filed as protein assay. (In general: In a scintillation proximity assay essentially only radioactivity close to the scintillant gives light.)

`Cn1cc(-c2cc(F)c3nnc(Sc4ccc5ncc(NCCO)cc5c4)n3c2)cn1` displayed a half-inhibitory concentration (IC50) of 13 µM.

Usually IC50 stands for the midpoint of a concentration-inhibition curve. Lower therefore signals greater potency.
